Molecules are shown by their SMILES.

One may read the EC50 as the midpoint of the concentration-response curve.

For the test, the system named is ATF4 luciferase reporter in HEK293T cells. The experiment in a line: ATF4-Luc assay (ATF4 luciferase reporter, tunicamycin-treated HEK293T cells). The format is cell-based, human. The settings on record: Homo sapiens, HEK-293T; HEK293T cells carrying the ATF4 luciferase reporter, 1 μg/mL tunicamycin, 7 hours. In general terms: Reporter assays use an easily measured gene product as a stand-in for the process of interest.
As to `O=C(COc1ccc(Cl)c(F)c1)NC12CCC(NC(=O)COc3cc(-c4ccccc4)n(-c4ccccc4)n3)(CC1)[C@@H](O)C2` [Compound 513, 2-(4-chloro-3-fluorophenoxy)-N-[(3S)-4-{2-[(1,5-diphenyl-1H-pyrazol-3-yl)oxy]acetamido}-3-hydroxybicyclo[2.2.2]octan-1-yl]acetamide], the EC50 was above 2000 nM.
The same measure for `O=C(COc1ccc(Cl)c(F)c1)NC12CCC(NC(=O)COc3ncnc4sccc34)(CC1)[C@@H](O)C2` [Compound 514, 2-(4-chloro-3-fluorophenoxy)-N-[(3S)-3-hydroxy-4-{2-[(thieno[2,3-d]pyrimidin-4-yl)oxy]acetamido}bicyclo[2.2.2]octan-1-yl]acetamide]: 10 to 50 nM; for `O=C(COc1ccc(Cl)c(F)c1)NC12CCC(NC(=O)COc3noc4ccccc34)(CC1)[C@@H](O)C2` [Compound 515, 2-[(1,2-benzoxazol-3-yl)oxy]-N-{(2S)-4-[2-(4-chloro-3-fluorophenoxy)acetamido]-2-hydroxybicyclo[2.2.2]octan-1-yl}acetamide]: below 10 nM; for `O=C(COc1ccc(Cl)c(F)c1)NC12CCC(NC(=O)COc3ncn(-c4ccc(Cl)cc4)n3)(CC1)[C@@H](O)C2` [Compound 516, 2-(4-chloro-3-fluorophenoxy)-N-[(3S)-4-(2-{[1-(4-chlorophenyl)-1H-1,2,4-triazol-3-yl]oxy}acetamido)-3-hydroxybicyclo[2.2.2]octan-1-yl]acetamide]: above 2000 nM.
`O=C(COc1ccc(Cl)c(F)c1)NC12CCC(NC(=O)COc3ccc4ccccc4c3)(CC1)[C@@H](O)C2` [Compound 517, 2-(4-chloro-3-fluorophenoxy)-N-[(3S)-3-hydroxy-4-{2-[(naphthalen-2-yl)oxy]acetamido}bicyclo[2.2.2]octan-1-yl]acetamide]: the EC50 is below 10 nM.
Under `O=C(COc1ccc(Cl)c(F)c1)NC12CCC(NC(=O)COc3ccc(Cl)nn3)(CC1)[C@@H](O)C2` [Compound 518, 2-(4-chloro-3-fluorophenoxy)-N-[(3S)-4-{2-[(6-chloropyridazin-3-yl)oxy]acetamido}-3-hydroxybicyclo[2.2.2]octan-1-yl]acetamide] stands 10 to 50 nM; under `COC(=O)c1cc(OCC(=O)NC23CCC(NC(=O)COc4ccc(Cl)c(F)c4)(CC2)C[C@@H]3O)no1` [Compound 519, methyl 3-[2-({(2S)-4-[2-(4-chloro-3-fluorophenoxy)acetamido]-2-hydroxybicyclo[2.2.2]octan-1-yl}amino)-2-oxoethoxy]-1,2-oxazole-5-carboxylate], above 2000 nM; under `Cc1cc(OCC(=O)NC23CCC(NC(=O)COc4ccc(Cl)c(F)c4)(CC2)C[C@@H]3O)c2ccccc2n1` [Compound 520, 2-(4-chloro-3-fluorophenoxy)-N-[(3S)-3-hydroxy-4-{2-[(2-methylquinolin-4-yl)oxy]acetamido}bicyclo[2.2.2]octan-1-yl]acetamide], 10 to 50 nM.
The same measure for `Cc1ccc(OCC(=O)NC23CCC(NC(=O)COc4ccc(Cl)c(F)c4)(CC2)C[C@@H]3O)cc1` [Compound 521, 2-(4-chloro-3-fluorophenoxy)-N-{(3S)-3-hydroxy-4-[2-(4-methylphenoxy)acetamido]bicyclo[2.2.2]octan-1-yl}acetamide]: below 10 nM; for `CCCS(=O)(=O)c1ccc(OCC(=O)NC23CCC(NC(=O)COc4ccc(Cl)c(F)c4)(CC2)C[C@@H]3O)cc1` [Compound 522, 2-(4-chloro-3-fluorophenoxy)-N-[(3S)-3-hydroxy-4-{2-[4-(propane-1-sulfonyl)phenoxy]acetamido}bicyclo[2.2.2]octan-1-yl]acetamide]: above 2000 nM.
For the molecule `O=C(COc1ccc(Cl)c(F)c1)NC12CCC(NC(=O)COc3nc(N4CCCCC4)nc(N4CCCCC4)n3)(CC1)[C@@H](O)C2` [Compound 523, 2-(4-chloro-3-fluorophenoxy)-N-[(3S)-4-(2-{[4,6-di(piperidin-1-yl)-1,3,5-triazin-2-yl]oxy}acetamido)-3-hydroxybicyclo[2.2.2]octan-1-yl]acetamide], the 50% effective concentration (EC50) was above 2000 nM.

(Values after patent US20240166652A1, “MODULATORS OF THE INTEGRATED STRESS PATHWAY” (Calico Life Sciences LLC, priority 2017, published 2024).)
